The term inhibition denotes the change of the read-out against control, counted positive when it falls.

Consider 34 compounds from patent US20090118332A1, “Therapeutic Agents - 551” (AstraZeneca AB, priority 2006, published 2009).

This assay deals with T1, human Fatty Acid Synthase (Homo sapiens, UniProt P49327).
T1 construct: made in house
The assay can be described thus: Human FAS enzyme assay (decrease in NADPH fluorescence). It counts as biochemical. The conditions noted are these: % inhibition at a concentration of 100 μmolar. The method, boiled down: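 In-house human FAS was preincubated with compound and NADPH for 15 min at room temperature in 0.1 M Tris pH 7.5 with EDTA, glutathione and BSA. Malonyl CoA and acetyl CoA (500 μM and 150 μM in the added mix) were then added for 60 min. IC50 came from time-zero-subtracted NADPH fluorescence (340/460 nm).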

T1 sequence (P49327 whole entry): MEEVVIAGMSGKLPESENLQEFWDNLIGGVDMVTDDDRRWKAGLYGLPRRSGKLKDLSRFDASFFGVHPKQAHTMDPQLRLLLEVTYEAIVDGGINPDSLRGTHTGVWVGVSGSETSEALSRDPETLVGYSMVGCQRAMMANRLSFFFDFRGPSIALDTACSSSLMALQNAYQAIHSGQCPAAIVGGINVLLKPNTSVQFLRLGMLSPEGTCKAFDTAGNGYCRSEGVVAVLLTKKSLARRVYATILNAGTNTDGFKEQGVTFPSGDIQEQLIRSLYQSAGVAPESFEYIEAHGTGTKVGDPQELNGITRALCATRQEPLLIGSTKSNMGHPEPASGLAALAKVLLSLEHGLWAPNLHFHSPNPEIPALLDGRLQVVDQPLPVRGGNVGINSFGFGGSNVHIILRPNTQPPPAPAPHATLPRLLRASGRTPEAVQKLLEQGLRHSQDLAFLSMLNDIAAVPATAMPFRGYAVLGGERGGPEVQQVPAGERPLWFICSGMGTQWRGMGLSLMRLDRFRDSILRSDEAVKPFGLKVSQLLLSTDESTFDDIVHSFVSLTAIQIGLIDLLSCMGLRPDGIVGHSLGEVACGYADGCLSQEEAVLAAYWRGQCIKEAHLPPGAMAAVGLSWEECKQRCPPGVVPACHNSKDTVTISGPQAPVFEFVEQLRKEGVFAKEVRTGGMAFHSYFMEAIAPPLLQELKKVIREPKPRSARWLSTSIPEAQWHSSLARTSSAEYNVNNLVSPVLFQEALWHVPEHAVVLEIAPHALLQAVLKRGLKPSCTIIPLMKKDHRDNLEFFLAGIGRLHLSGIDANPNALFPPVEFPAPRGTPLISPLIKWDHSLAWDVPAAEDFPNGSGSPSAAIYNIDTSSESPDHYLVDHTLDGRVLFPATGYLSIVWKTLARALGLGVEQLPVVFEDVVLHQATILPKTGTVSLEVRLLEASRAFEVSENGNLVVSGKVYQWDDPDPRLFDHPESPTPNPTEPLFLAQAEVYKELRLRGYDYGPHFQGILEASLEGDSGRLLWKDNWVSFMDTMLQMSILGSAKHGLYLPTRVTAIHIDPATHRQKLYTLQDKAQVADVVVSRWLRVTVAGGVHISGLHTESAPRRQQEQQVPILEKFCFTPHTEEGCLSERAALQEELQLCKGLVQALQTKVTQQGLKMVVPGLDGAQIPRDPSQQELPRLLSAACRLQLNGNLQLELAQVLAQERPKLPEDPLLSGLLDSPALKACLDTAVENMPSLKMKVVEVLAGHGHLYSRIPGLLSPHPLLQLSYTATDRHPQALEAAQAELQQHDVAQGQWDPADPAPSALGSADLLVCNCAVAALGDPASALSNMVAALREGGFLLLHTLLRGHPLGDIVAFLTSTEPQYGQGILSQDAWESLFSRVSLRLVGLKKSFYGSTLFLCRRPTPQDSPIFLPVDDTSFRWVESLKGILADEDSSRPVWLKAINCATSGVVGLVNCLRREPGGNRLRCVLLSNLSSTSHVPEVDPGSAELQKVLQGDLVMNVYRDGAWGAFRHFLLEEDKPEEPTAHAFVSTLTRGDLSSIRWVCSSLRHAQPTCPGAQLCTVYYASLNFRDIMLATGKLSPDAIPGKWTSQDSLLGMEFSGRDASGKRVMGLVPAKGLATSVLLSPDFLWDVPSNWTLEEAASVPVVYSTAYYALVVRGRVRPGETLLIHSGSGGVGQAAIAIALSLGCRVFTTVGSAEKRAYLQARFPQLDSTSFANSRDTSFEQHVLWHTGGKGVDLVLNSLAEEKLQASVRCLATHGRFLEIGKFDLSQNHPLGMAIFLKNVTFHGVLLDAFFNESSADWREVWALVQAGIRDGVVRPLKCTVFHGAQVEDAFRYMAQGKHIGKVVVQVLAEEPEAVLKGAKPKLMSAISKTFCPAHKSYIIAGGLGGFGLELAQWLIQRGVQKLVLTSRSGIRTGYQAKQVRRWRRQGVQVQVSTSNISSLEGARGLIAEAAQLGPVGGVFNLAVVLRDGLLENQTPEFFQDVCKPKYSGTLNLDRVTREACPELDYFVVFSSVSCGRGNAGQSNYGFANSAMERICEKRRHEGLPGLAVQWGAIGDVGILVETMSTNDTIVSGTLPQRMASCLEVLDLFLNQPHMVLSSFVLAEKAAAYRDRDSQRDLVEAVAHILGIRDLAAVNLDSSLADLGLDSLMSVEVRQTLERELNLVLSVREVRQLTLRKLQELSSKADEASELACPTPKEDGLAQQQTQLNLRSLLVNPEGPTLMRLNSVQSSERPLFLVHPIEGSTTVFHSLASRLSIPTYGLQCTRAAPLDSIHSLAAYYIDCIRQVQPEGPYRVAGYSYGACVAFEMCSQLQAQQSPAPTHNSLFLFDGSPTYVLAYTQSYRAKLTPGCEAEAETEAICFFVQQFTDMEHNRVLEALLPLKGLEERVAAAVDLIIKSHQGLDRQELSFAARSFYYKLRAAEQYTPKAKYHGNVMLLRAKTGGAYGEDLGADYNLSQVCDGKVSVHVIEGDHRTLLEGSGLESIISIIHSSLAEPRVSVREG

In the case of `Cc1ccc(C(=O)N2CCC(c3ccc(Cl)cc3)CC2)cc1NC(=O)NC(C)C` [Example 359, 1-[5-[4-(4-chlorophenyl)piperidine-1-carbonyl]-2-methyl-phenyl]-3-propan-2-yl-urea], the inhibition at 100 µM was 92.1%.
In the case of `Cc1ccc(C(=O)N2CCC(c3ccc(S(N)(=O)=O)cc3)CC2)cc1NC(=O)NC(C)C` [Example 360, 1-[2-methyl-5-[4-(4-sulfamoylphenyl)piperidine-1-carbonyl]phenyl]-3-propan-2-yl-urea], the inhibition at 100 µM stood at 97.3%.
With `CNC(=O)Nc1cc(C(=O)N2CCC(c3ccc(C#N)cc3)CC2)ccc1C` [Example 361, 1-[5-[4-(4-cyanophenyl)piperidine-1-carbonyl]-2-methyl-phenyl]-3-methyl-urea] the figure was 101%.
As to `CSc1ccc(C(=O)N2CCC(c3ccc(C#N)cc3)CC2)cc1NC(=O)NC(C)C` [Example 362, 3-[5-[4-(4-cyanophenyl)piperidine-1-carbonyl]-2-methylsulfanylphenyl]-1-propan-2-ylurea], the inhibition at 100 µM was 87.9%.
With `CSc1ccc(C(=O)N2CCC(c3ccc(C#N)cc3)CC2)cc1NC(=O)NCc1ccccc1` [Example 363, 3-benzyl-1-[5-[4-(4-cyanophenyl)piperidine-1-carbonyl]-2-methylsulfanylphenyl]urea] the figure was 84.7%; with `CC(C)NC(=O)Nc1cc(C(=O)N2CCC(c3ccc(C#N)cc3)CC2)ccc1S(C)(=O)=O` [Example 364, 3-[5-[4-(4-cyanophenyl)piperidine-1-carbonyl]-2-methylsulfonylphenyl]-1-propan-2-ylurea], 84.1%; with `COCc1ccc(C(=O)N2CCC(c3ccc(C#N)cc3)CC2)cc1NC(=O)NC(C)C` [Example 365, 3-[5-[4-(4-cyanophenyl)piperidine-1-carbonyl]-2-(methoxymethyl)phenyl]-1-propan-2-ylurea], 82.5%.
With `Cc1ccc(C(=O)N2CCC(c3ccc(C#N)cc3)CC2)cc1NC(N)=O` [Example 366, [5-[4-(4-cyanophenyl)piperidine-1-carbonyl]-2-methylphenyl]urea] the figure was 101%; with `Cc1ccc(C(=O)N2CCC(c3ccc(C#N)cc3)CC2)cc1NC(=O)NCc1ncc(F)cc1F` [Example 367, 1-[5-[4-(4-cyanophenyl)piperidine-1-carbonyl]-2-methylphenyl]-3-[(3,5-difluoropyridin-2-yl)methyl]urea], 107%.
To `Cc1ccc(C(=O)N2CCC(c3ccc(C#N)cc3)CC2)cc1NC(=O)NC(C)c1ccccn1` (stereo not shown) [Example 368, 1-[5-[4-(4-cyanophenyl)piperidine-1-carbonyl]-2-methylphenyl]-3-(1-pyridin-2-ylethyl)urea] belongs 110%; to `Cc1ccc(C(=O)N2CCC(c3ccc(C#N)cc3)CC2)cc1NC(=O)NC(Cc1ccc(F)cc1)C(=O)O` (stereo not shown) [Example 369, 2-[[5-[4-(4-cyanophenyl)piperidine-1-carbonyl]-2-methylphenyl]carbamoylamino]-3-(4-fluorophenyl)propanoic acid], 88.5%.
As to `Cc1ccc(C(=O)N2CCC(c3ccc(C#N)cc3)CC2)cc1NC(=O)NC[C@@H](NC(=O)OC(C)(C)C)C(=O)O` [Example 370, (2R)-3-[[5-[4-(4-cyanophenyl)piperidine-1-carbonyl]-2-methylphenyl]carbamoylamino]-2-[(2-methylpropan-2-yl)oxycarbonylamino]propanoic acid], the inhibition at 100 µM is 106%.
For `Cc1ccc(C(=O)N2CCC(c3ccc(C#N)cc3)CC2)cc1NC(=O)NC(C(=O)O)C(C)C` (stereo not shown) [Example 371, 2-[[5-[4-(4-cyanophenyl)piperidine-1-carbonyl]-2-methylphenyl]carbamoylamino]-3-methylbutanoic acid], the inhibition at 100 µM is 79%.
On to `Cc1ccc(C(=O)N2CCC(c3ccc(S(C)(=O)=O)cc3)CC2)cc1NC(=O)NC(C)C` [Example 374, 1-[2-methyl-5-[4-(4-methylsulfonylphenyl)piperidine-1-carbonyl]phenyl]-3-propan-2-ylurea], for which the inhibition at 100 µM amounted to 71.8%.
For the compound `Cc1ccc(NC(=O)NC(C)(C)C)cc1C(=O)N1CCC(c2ccc(C#N)cc2)CC1` [Example 376, 3-tert-butyl-1-[3-[4-(4-cyanophenyl)piperidine-1-carbonyl]-4-methylphenyl]urea], the inhibition at 100 µM turned out to be 68.4%.
With `CC(C)NC(=O)Nc1ccc(F)c(C(=O)N2CCC(c3ccc(C#N)cc3)CC2)c1` [Example 377, 3-[3-[4-(4-cyanophenyl)piperidine-1-carbonyl]-4-fluorophenyl]-1-propan-2-ylurea] the figure was 71.1%; with `Cc1ccc(NC(=O)NCc2ccc(C#N)cc2)cc1C(=O)N1CCC(c2ccc(C#N)cc2)CC1` [Example 378, 3-[(4-cyanophenyl)methyl]-1-[3-[4-(4-cyanophenyl)piperidine-1-carbonyl]-4-methylphenyl]urea], 73.2%.
With `Cc1ccc(NC(=O)NCc2ccncc2)cc1C(=O)N1CCC(c2ccc(C#N)cc2)CC1` [Example 379, 1-[3-[4-(4-cyanophenyl)piperidine-1-carbonyl]-4-methylphenyl]-3-(pyridin-4-ylmethyl)urea] the figure was 73.3%.
To `Cc1ccc(NC(=O)N(C)C)cc1C(=O)N1CCC(c2ccc(C#N)cc2)CC1` [Example 380, 3-[3-[4-(4-cyanophenyl)piperidine-1-carbonyl]-4-methylphenyl]-1,1-dimethylurea] belongs 74.8%.
Turning to `Cc1ccc(C(=O)N2CCC(c3ccc(C#N)cc3)CC2)cc1NC(=O)N(C)Cc1ccccc1` [Example 381, 1-benzyl-3-[5-[4-(4-cyanophenyl)piperidine-1-carbonyl]-2-methylphenyl]-1-methylurea], the inhibition at 100 µM was determined as 71.1%.
In the case of `Cc1ccc(C(=O)N2CCC(c3ccc(C#N)cc3)CC2)cc1NC(=O)NC1CONC1=O` (stereo not shown) [Example 383, 1-[5-[4-(4-cyanophenyl)piperidine-1-carbonyl]-2-methylphenyl]-3-(3-oxo-1,2-oxazolidin-4-yl)urea], the inhibition at 100 µM worked out at 73.6%.
As for `C#CC(C)(C)NC(=O)Nc1cc(C(=O)N2CCC(c3ccc(C#N)cc3)CC2)ccc1C` [Example 384, 1-[5-[4-(4-cyanophenyl)piperidine-1-carbonyl]-2-methylphenyl]-3-(2-methylbut-3-yn-2-yl)urea], the inhibition at 100 µM came out at 97.6%.
With `CCOC(=O)C(C)NC(=O)Nc1cc(C(=O)N2CCC(c3ccc(C#N)cc3)CC2)ccc1C` (stereo not shown) [Example 385, Ethyl 2-[[5-[4-(4-cyanophenyl)piperidine-1-carbonyl]-2-methylphenyl]carbamoylamino]-propanoate] the figure was 60.8%; with `CC(C)NC(=O)Nc1cc(C(=O)N2CCC(c3ccc(C#N)cc3)CC2)ccc1[S+](C)[O-]` (stereo not shown) [Example 386, 3-[5-[4-(4-cyanophenyl)piperidine-1-carbonyl]-2-methylsulfinylphenyl]-1-propan-2-ylurea], 67.4%.
To `C[S+]([O-])c1ccc(C(=O)N2CCC(c3ccc(C#N)cc3)CC2)cc1NC(=O)NCc1ccccc1` (stereo not shown) [Example 387, 3-benzyl-1-[5-[4-(4-cyanophenyl)piperidine-1-carbonyl]-2-methylsulfinylphenyl]urea] belongs 72.9%; to `Cc1ccc(C(=O)N2CCC(c3ccc(C#N)cc3)CC2)cc1NC(=O)NC1CCCC1C(=O)O` (stereo not shown) [Example 388, 2-[[5-[4-(4-cyanophenyl)piperidine-1-carbonyl]-2-methylphenyl]carbamoylamino]-cyclopentane-1-carboxylic acid], 83.9%; to `Cc1ccc(C(=O)N2CCC(c3ccc(C#N)cc3)CC2)cc1NC(=O)NC1(C)CC1` [Example 389, 1-[5-[4-(4-cyanophenyl)piperidine-1-carbonyl]-2-methylphenyl]-3-(1-methylcyclopropyl)-urea], 78.6%.
For `CC(=O)N1CCCC(NC(=O)Nc2cc(C(=O)N3CCC(c4ccc(C#N)cc4)CC3)ccc2C)C1` (stereo not shown) [Example 390, 3-(1-acetylpiperidin-3-yl)-1-[5-[4-(4-cyanophenyl)piperidine-1-carbonyl]-2-methylphenyl]urea], the inhibition at 100 µM was 90.6%.
To `Cc1ccc(C(=O)N2CCC(c3ccccc3)CC2)cc1NC(=O)NC(C)C` [Example 391, 1-[2-methyl-5-(4-phenylpiperidine-1-carbonyl)phenyl]-3-propan-2-ylurea] belongs 71%; to `Cc1ccc(C(=O)N2CCC(c3ccc(C#N)cc3)CC2)cc1NC(=O)N(C)CCO` [Example 392, 3-[5-[4-(4-cyanophenyl)piperidine-1-carbonyl]-2-methylphenyl]-1-(2-hydroxyethyl)-1-methylurea], 76.3%.
With `Cc1ccc(C(=O)N2CCC(c3ccc(C#N)cc3)CC2)cc1NC(=O)N(C)C1CCN(C)CC1` [Example 393, 3-[5-[4-(4-cyanophenyl)piperidine-1-carbonyl]-2-methylphenyl]-1-methyl-1-(1-methylpiperidin-4-yl)urea] the figure was 65.8%; with `Cc1ccc(C(=O)N2CCC(c3ccc(C#N)cc3)CC2)cc1NC(=O)N(C)CCN(C)C` [Example 394, 3-[5-[4-(4-cyanophenyl)piperidine-1-carbonyl]-2-methylphenyl]-1-(2-dimethylaminoethyl)-1-methylurea], 68.7%.
Regarding `Cc1ccc(C(=O)N2CCC(c3ccc(C#N)cc3)CC2)cc1NC(=O)N(CCO)C(C)C` [Example 395, 3-[5-[4-(4-cyanophenyl)piperidine-1-carbonyl]-2-methylphenyl]-1-(2-hydroxyethyl)-1-propan-2-ylurea], the inhibition at 100 µM was 71.6%.
With `Cc1ccc(C(=O)N2CCC(c3ccc(C#N)cc3)CC2)cc1NC(=O)N(C)C1CCOCC1` [Example 396, 3-[5-[4-(4-cyanophenyl)piperidine-1-carbonyl]-2-methylphenyl]-1-methyl-1-(oxan-4-yl)urea] the figure was 62.9%.
